Results from patent publication US4940730A, “Angiogenesis enhancer” (Takeda Chemical Industries, Ltd., priority 1987, dated 1990).
Where a name gives a salt, the structure may show the parent alone.

Tested on: hen's chlorioallantoic membrane
Assay: CAM (Chorio Allantoic Membrane) assay
Assay type: in vivo
Settings: for ED50: amount of drug which gave the numerical value 5 (positive rate) in CAM assay; for Positive rate of CAM assay: average neovascularization score (++=10, +=7, °=3, -=0), 3 days on membrane
Protocol: CAM (Chorio Allantoic Membrane) assay was conducted on various compounds of the present invention. The technique of the CAM assay was that modified somewhat on Auerbach's method [Developmental Biology, 41, 391 (1974)]. More specifically, hen's fertile eggs were incubated for three days at 37° C. (Napco carbon dioxide incubator-6300 was employed, CO2 :0% H2 O saturated). Polypropylene-made discs (6 mm. diameter) were spotted with a chloroform:ethanol (1:4 by volume) solution of each compound so that the concentration may be 0, 0.25, 0.64, 1.6, 4, 10 and 25 ug, respectively. The test materials were air-dried in a clean bench, which were then placed quietly on hen's chlorioallantoic membrane, followed by incubation at 37° C. for further three days. Then, the vascularization state was observed. In the tables, the positive rates were calculated on the following basis. Namely, degrees of neovascularization were determined as ++ for very strong, + for strong, ° for weak and - for negative, and they were numerized as 10, 7, 3 and 0, respectively. The average numerical value in each of the concentrations of the respective samples was made as positive rate. Further, the amount of the drug which gave the numerical value 5 in each sample was shown as ED50 value (ug/disc).

[1] = amount of sample 0.64 μg per disc
[2] = amount of sample 1.6 μg per disc
[3] = amount of sample 10 μg per disc
[4] = amount of sample 25 μg per disc

Row | Compound | ED50 | Positive rate of CAM assay [1] | Positive rate of CAM assay [2] | Positive rate of CAM assay (amount of sample 4 μg per disc) | Positive rate of CAM assay [3] | Positive rate of CAM assay [4]
1 | CCCCCCCC/C=C\CCCCCCCCCCCCN [1-Amino-13-docosene.HCl] | 0.94 ug/disc | 3.4 | 7.0 | 8.8 | 10 | > 10
2 | C=CCCCCCCCCCCCCCCCCCCCC [1-Docosene] | 5.46 ug/disc | 0 | 0 | 2.5 | 10 | 9.3
3 | CCCCCCCCCCCCCCCCCCCCCC[N+](C)(C)C [1-Trimethyammonio docosane bromide] | 4.00 ug/disc | 0 | 4.5 | 5.0 | 8.0 | –
4 | CCCCCCCC/C=C\CCCCCCCCCCCC(=O)Nc1ccc(Cl)cc1C(=O)O [2-NH2-4-Cl-BzCO2 H, N-erucoyl-2-amino-5-chlorobenzoic acid] | 2.70 ug/disc | 2.6 | 4.2 | 5.6 | 8.0 | 10
5 | CCCCCCCC/C=C\CCCCCCCCCCCC(=O)N1C(C(=O)O)CSC1c1ccncc1 (stereo not shown) [2-Py-Thia-CO2 H] | 2.67 ug/disc | 2.8 | 2.6 | 6.8 | 10 | 10
6 | CCCCCCCCC1OC1CCCCCCCCCCCC(N)=O (stereo not shown) [13,14-Epoxyerucamide] | 2.22 ug/disc | 1.5 | 3.3 | 8.5 | 10 | 10
7 | CCCCCCCCC1OC1CCCCCCCCCCCCO (stereo not shown) [13, 14-Eopxy-docosan-1-ol] | 5.18 ug/disc | 0 | 0 | 3.3 | 9.3 | 10
8 | CCCCCCCC/C=C\CCCCCCCCCCCCO [13-Docosen-1-ol] | 2.15 ug/disc | 1.4 | 4.8 | 6.8 | 9.4 | 10
9 | CCCCCCCCCCCCCCCCCCCC(N)=O [Arachidamide] | 11.5 ug/disc | 0 | 2.8 | 3.4 | 4.6 | 7.4
10 | CCCCCCCCCCCCCCCCCCCC(=O)O [Arachidic acid] | 4.00 ug/disc | 0 | 4.6 | 4.6 | 7.6 | 8.8
11 | CCCCC/C=C\C/C=C\C/C=C\C/C=C\CCCC(N)=O [Arachidonamide] | 6.13 ug/disc | 1.3 | 1.6 | 2.9 | 7.4 | 9.6
12 | CCCCC/C=C\C/C=C\C/C=C\C/C=C\CCCC(=O)O [Arachidonic acid] | 3.64 ug/disc | 2.5 | 3.5 | 5.3 | 7 | 10
13 | CCCCCCCCCCCCCCCCCCCCCC(N)=O [Behenamide] | 2.76 ug/disc | 0 | 1.8 | 7.6 | 10 | 10
14 | CCCCCCCC/C=C/CCCCCCCCCCCC(N)=O [Brassidamide] | 1.89 ug/disc | 0 | 2.0 | 7.4 | 9.3 | 10
15 | CCCCCCCC/C=C/CCCCCCCCCCCC(=O)O [Brassidic acid] | 1.82 ug/disc | 3.5 | 6 | 6 | 9.3 | 10
16 | CCCC(N)=O [Butyramide, reference compound] | – | 0 | 0 | 0 | 0 | 0

Row | Compound | ED50 | Positive rate of CAM assay [1] | Positive rate of CAM assay [2] | Positive rate of CAM assay (amount of sample 4 μg per disc) | Positive rate of CAM assay [3] | Positive rate of CAM assay [4]
17 | CCCCCCCCCCCCCCCCCCCCCCCCCC(=O)O [Cerotic acid] | 2.75 ug/disc | 1.8 | 2.5 | 7.8 | 9.3 | 8.5
18 | CC/C=C\C/C=C\C/C=C\C/C=C\C/C=C\C/C=C\CCC(=O)O [Docosahexaenoic acid] | – | 0 | 0 | 0 | 0.6 | 4.8
19 | CCCCCCCCCCCCCCCCCCCCCCO [Docosan-1-ol] | 2.55 ug/disc | 0 | 1.8 | 8.3 | 10 | 10
20 | CCCCCCCC/C=C/CCCCCCCC(=O)O [Elaidic acid] | – | 0 | 0 | 3 | 4 | 4
21 | CCCCCCCCC(O)C(O)CCCCCCCCCCCC(N)=O (stereo not shown) [Erucamide, diOH, 13,14-dihydroxydocosanamide] | 5.62 ug/disc | 0 | 2.0 | 3.8 | 7.0 | 9.4
22 | CCCCCCCCC(O)C(O)CCCCCCCCCCCC(=O)O (stereo not shown) [Erucic acid diOH] | 3.45 ug/disc | 0 | 2.0 | 7.4 | 8.2 | 10
23 | CCCCCCCCCCCCCCCCCCCCCCCC(=O)O [Lignoceric acid] | 4.61 ug/disc | 1.4 | 2 | 4.6 | 7.6 | 6.2
24 | CCCCC/C=C\C/C=C\CCCCCCCC(=O)O [Linoleic acid] | 7.69 ug/disc | 0 | 1.8 | 2.5 | 6 | 10
25 | CCCCCCCCCCCCCC(N)=O [Myristamide] | – | 0 | 0 | 1.3 | 2.6 | 3.5
26 | CCCCCCCCCCCCCC(=O)O [Myristic acid] | 25.0 ug/disc | 0 | 0 | 0.8 | 4 | 5
27 | CCCCCCCC/C=C\CCCCCCCCCCCC(=O)N(CCO)CCO [N, N-di-diethanol] | 2.42 ug/disc | 1.0 | 2.3 | 8.0 | 10 | 10
28 | CCCCCCCC/C=C\CCCCCCCCCCCC(=O)N(C)C [N,N-dimethyl] | 5.41 ug/disc | 0 | 1.5 | 3.3 | 8.5 | 9.3
29 | CCCCCCCC/C=C\CCCCCCCCCCCC(=O)NC [N-methyl, N-methyl erucamide] | 2.90 ug/disc | 0.8 | 2.3 | 7.8 | 10 | 10
30 | CCCCCCCC/C=C\CCCCCCCCCCCCCC(=O)O [Nervonic acid] | 2.75 ug/disc | 1.8 | 2.5 | 7.8 | 9.3 | 8.5
31 | CCCCCCCC/C=C\CCCCCCCC(N)=O [Oleamide] | 16.7 ug/disc | 0 | 0.6 | 0 | 7.8 | 6.8
